In patent publication US10766879B2, “Pyrimidine derivatives as kinase inhibitors and their therapeutical applications” (NantBioScience, Inc., priority 2015, dated 2020):

Key:
[1] = molecular target: T1, Abl kinase (Homo sapiens, UniProt P00519); test: KinaseProfiler kinase inhibition assay, Abl; type: biochemical; conditions: 1 μM compound
T1 construct: purchased Millipore (KinaseProfiler Service)

[2] = molecular target: T2, Alk kinase (Homo sapiens, UniProt Q9UM73); test: KinaseProfiler kinase inhibition assay, Alk; type: biochemical; conditions: 1 μM compound
T2 construct: purchased Millipore (KinaseProfiler Service)

[3] = molecular target: T3, c-Src kinase (Homo sapiens, UniProt P12931); test: KinaseProfiler kinase inhibition assay, c-Src; type: biochemical; conditions: 1 μM compound; read-out: % Inhibition @1 μM cSrc
T3 construct: purchased Millipore (KinaseProfiler Service)
T3 sequence (P12931 whole entry): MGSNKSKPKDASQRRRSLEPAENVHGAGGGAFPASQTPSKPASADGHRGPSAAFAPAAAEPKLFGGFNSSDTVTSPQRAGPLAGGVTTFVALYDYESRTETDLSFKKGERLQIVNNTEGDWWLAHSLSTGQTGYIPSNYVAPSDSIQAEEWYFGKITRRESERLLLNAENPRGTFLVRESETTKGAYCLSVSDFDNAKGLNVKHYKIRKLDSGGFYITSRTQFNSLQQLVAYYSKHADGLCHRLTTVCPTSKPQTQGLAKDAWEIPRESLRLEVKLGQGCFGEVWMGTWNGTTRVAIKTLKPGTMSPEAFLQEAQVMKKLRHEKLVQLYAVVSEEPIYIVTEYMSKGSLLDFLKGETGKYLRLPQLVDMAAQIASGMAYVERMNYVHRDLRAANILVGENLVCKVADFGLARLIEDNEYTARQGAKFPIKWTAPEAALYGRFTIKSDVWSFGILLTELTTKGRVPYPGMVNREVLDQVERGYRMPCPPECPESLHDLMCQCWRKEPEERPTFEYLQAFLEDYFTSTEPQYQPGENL

[4] = molecular target: T4, FGFR1 kinase (Homo sapiens, UniProt P11362); test: KinaseProfiler kinase inhibition assay, FGFR1; type: biochemical; conditions: 1 μM compound
T4 construct: purchased Millipore (KinaseProfiler Service)
T4 sequence (P11362 22-822): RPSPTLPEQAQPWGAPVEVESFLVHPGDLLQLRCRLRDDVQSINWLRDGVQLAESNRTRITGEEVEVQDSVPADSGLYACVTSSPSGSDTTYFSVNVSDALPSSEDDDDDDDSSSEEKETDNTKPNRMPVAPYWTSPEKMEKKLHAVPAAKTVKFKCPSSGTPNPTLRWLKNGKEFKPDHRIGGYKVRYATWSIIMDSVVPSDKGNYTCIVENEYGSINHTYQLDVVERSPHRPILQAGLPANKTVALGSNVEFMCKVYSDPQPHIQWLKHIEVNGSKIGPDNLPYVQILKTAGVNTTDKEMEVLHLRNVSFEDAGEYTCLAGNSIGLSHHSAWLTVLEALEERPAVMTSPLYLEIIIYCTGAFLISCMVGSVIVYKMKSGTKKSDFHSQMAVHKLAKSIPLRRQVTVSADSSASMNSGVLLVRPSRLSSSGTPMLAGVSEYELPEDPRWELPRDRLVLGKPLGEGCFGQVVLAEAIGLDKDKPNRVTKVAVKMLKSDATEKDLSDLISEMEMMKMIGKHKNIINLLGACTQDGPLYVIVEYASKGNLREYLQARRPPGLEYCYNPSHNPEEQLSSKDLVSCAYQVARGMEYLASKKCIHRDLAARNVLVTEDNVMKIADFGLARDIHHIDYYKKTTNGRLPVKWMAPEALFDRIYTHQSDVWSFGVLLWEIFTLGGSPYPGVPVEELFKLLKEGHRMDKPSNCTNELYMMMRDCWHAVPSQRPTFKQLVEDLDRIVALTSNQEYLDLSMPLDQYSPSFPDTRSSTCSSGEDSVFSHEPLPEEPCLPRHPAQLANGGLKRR

[5] = molecular target: T5, KDR kinase (Homo sapiens, UniProt P35968); test: KinaseProfiler kinase inhibition assay, KDR; type: biochemical; conditions: 1 μM compound
T5 construct: purchased Millipore (KinaseProfiler Service)
T5 sequence (P35968 20-1356): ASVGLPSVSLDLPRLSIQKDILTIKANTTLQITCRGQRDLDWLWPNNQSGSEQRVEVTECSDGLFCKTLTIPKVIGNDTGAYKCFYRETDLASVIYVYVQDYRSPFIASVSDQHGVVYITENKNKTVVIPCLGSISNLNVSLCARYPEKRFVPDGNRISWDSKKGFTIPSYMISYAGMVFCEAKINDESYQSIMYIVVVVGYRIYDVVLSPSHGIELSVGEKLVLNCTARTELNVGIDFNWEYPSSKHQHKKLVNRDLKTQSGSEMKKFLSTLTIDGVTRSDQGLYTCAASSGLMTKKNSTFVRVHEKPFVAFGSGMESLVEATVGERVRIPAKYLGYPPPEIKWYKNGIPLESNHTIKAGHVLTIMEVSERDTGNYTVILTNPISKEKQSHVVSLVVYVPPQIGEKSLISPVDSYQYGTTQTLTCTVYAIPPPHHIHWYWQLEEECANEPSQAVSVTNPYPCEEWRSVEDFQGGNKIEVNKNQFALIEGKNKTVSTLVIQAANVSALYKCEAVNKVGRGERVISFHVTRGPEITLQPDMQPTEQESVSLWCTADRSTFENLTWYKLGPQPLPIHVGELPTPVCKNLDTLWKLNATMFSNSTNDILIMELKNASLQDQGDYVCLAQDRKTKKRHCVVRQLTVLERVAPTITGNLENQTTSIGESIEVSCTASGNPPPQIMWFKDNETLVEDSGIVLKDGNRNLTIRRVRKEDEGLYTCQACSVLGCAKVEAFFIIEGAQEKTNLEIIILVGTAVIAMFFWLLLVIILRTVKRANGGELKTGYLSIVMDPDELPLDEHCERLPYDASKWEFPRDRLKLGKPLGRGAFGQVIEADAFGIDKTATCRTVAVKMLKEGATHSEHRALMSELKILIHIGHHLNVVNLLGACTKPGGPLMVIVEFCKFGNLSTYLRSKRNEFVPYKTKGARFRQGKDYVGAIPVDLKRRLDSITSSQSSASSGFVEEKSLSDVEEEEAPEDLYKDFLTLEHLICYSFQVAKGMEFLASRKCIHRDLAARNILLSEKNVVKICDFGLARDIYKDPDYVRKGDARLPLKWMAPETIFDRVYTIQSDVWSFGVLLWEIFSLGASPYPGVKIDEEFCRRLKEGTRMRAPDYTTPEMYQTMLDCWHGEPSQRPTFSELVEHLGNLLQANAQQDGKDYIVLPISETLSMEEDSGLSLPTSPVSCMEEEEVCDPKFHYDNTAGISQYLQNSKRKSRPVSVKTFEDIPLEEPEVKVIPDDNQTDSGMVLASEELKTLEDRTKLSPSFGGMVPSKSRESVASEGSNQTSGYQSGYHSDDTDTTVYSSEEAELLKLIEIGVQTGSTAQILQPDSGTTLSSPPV

[6] = molecular target: T6, Ret kinase (Homo sapiens, UniProt P07949); test: KinaseProfiler kinase inhibition assay, Ret; type: biochemical; conditions: 1 μM compound
T6 construct: purchased Millipore (KinaseProfiler Service)

[7] = molecular target: T7, Tie2 (Homo sapiens, UniProt Q02763); test: KinaseProfiler kinase inhibition assay, Tie2; type: biochemical; conditions: 1 μM compound
T7 construct: purchased Millipore (KinaseProfiler Service)
T7 sequence (Q02763 23-1124): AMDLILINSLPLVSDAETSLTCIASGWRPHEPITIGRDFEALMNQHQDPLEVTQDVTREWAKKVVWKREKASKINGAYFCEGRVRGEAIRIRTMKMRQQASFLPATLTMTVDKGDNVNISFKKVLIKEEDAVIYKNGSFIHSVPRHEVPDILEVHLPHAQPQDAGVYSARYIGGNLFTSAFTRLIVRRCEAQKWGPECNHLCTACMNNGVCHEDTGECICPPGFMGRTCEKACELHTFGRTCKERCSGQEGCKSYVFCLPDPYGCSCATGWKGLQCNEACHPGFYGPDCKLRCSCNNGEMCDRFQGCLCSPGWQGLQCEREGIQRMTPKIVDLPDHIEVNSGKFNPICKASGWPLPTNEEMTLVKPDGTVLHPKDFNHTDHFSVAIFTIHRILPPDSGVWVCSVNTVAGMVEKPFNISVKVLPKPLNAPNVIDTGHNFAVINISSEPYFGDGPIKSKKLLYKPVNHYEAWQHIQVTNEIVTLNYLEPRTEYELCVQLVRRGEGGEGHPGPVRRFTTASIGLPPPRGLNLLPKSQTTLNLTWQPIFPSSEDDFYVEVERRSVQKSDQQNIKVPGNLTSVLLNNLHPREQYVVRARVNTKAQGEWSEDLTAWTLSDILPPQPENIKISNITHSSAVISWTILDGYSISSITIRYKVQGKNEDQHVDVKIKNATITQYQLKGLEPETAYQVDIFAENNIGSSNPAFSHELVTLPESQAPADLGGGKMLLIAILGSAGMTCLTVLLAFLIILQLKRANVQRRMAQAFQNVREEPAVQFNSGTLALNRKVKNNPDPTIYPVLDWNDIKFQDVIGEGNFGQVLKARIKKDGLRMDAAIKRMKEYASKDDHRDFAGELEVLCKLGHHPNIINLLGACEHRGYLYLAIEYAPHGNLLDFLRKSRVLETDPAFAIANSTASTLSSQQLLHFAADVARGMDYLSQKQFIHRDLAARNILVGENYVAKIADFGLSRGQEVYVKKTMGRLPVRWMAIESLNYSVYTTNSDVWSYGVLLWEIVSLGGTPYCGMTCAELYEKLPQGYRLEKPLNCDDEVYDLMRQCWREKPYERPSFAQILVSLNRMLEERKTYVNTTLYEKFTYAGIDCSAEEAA

[8] = tested on: AN3_CA; test: CellTiterblue viability, 72 hr, AN3_CA; type: cell-based; conditions: Homo sapiens, AN3-CA, AN3_CA cells
Experimental: (§1) A number of studies were performed to analyze the consequences of tyrosine kinase inhibition in cell lines. To do this, 1000 cells are seeded in 27 μl/well in 384-well microplates, which are then placed in a humidified CO2 incubator at 37° C. overnight. The next day, 3 μl/well of 10× concentrated drug is added and the plates are returned to the incubator for 72 hr. After 72 hr incubation, plates are removed and […] CellTiterblue (Promega) viability reagent is added. Plates are returned to the incubator for 3 hr, after which it is fluorescence measurements are read on the Victor X3 plate reader (Perkin Elmer). Data are analyzed using Excel (Microsoft), and GI50 values are determined using Prism (Graphpad).

[9] = tested on: Kato III; test: CellTiterblue viability, 72 hr, Kato III; type: cell-based; conditions: Homo sapiens, Kato III cells
Experimental: as §1

T1 sequence (P00519 whole entry): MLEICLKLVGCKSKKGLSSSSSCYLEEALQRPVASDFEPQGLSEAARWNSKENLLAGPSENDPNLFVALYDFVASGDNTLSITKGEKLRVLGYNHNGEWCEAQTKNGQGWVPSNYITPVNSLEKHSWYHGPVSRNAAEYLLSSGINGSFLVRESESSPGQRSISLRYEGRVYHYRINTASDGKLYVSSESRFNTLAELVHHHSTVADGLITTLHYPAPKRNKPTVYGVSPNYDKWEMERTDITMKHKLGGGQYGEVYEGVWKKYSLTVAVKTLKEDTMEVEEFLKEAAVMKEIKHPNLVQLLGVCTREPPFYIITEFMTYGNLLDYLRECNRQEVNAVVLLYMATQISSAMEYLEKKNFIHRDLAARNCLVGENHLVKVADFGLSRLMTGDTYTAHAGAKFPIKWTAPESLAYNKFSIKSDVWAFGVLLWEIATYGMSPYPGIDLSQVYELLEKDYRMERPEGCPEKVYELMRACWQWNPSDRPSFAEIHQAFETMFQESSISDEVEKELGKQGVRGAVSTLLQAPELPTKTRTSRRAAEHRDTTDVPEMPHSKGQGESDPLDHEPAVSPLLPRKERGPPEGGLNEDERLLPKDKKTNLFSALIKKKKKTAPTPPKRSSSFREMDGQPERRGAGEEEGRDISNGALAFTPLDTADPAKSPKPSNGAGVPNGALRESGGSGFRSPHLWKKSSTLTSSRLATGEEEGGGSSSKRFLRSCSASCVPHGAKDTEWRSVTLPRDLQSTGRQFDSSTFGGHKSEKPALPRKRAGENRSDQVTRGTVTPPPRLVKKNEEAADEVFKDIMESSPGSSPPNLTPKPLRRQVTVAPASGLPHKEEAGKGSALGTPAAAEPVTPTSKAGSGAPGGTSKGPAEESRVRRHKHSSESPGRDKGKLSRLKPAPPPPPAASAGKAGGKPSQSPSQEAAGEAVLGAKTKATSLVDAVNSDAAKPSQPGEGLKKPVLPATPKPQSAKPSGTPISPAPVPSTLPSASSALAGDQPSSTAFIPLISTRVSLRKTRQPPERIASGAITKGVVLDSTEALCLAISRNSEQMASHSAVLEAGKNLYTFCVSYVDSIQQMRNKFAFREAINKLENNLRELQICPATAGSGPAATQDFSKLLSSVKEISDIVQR

| Compound | inhibition at 1 µM [1] | inhibition at 1 µM [2] | inhibition at 1 µM [3] | inhibition at 1 µM [4] | inhibition at 1 µM [5] | inhibition at 1 µM [6] | inhibition at 1 µM [7] | GI50 [8] | GI50 [9] |
| --- | --- | --- | --- | --- | --- | --- | --- | --- | --- |
| CC(=O)Nc1ccc(Nc2cc(Oc3ccc4[nH]c(C)cc4c3F)ncn2)cc1 [Example 7] | 8% | 61% | 14% | 96% | 98% | -16% | 4% | > 500 nM | > 500 nM |
| Cc1cc2c(F)c(Oc3cc(Nc4cc(-c5ccccc5)[nH]n4)ncn3)ccc2[nH]1 [Example 4] | 23% | 53% | 36% | 59% | 98% | 27% | 30% | > 500 nM | – |
| Cc1cc2c(F)c(Oc3cc(Nc4cccc(N5CCOCC5)c4)ncn3)ccc2[nH]1 [Example 8] | 11% | 60% | 15% | 97% | 98% | 22% | 2% | > 500 nM | > 500 nM |
| Cc1cc2c(F)c(Oc3cc(Nc4ccc(N5CCOCC5)cc4)ncn3)ccc2[nH]1 [Example 9] | 21% | 70% | 20% | 75% | 96% | 35% | 24% | > 500 nM | > 500 nM |
| CC(=O)N1CCN(c2ccc(Nc3cc(Oc4cc(F)c5[nH]c(C)cc5c4F)ncn3)cc2)CC1 [Compound 50] | 36% | 63% | 58% | 89% | 97% | 36% | 48% | > 500 nM | 348 nM |
| Cc1cc2c(F)c(Oc3cc(Nc4cccc(N5CCN(C)CC5)c4)ncn3)ccc2[nH]1 [Example 13] | 41% | 60% | 32% | 98% | 98% | 61% | 70% | > 500 nM | 170 nM |

Further lines, with some results ahead:

| inhibition at 1 µM [1] | inhibition at 1 µM [2] | inhibition at 1 µM [3] | inhibition at 1 µM [4] | inhibition at 1 µM [5] | inhibition at 1 µM [6] | inhibition at 1 µM [7] | Compound | GI50 [8] | GI50 [9] |
| --- | --- | --- | --- | --- | --- | --- | --- | --- | --- |
| 0% | 38% | 11% | 97% | 96% | -12% | -6% | Cc1cc2c(F)c(Oc3ncnc(Nc4ccc(N5CCN(C)CC5)cc4)c3F)ccc2[nH]1 [Example 24] | > 500 nM | 386 nM |
| 4% | 35% | 11% | 85% | 79% | -46% | -2% | Cc1cc2c(F)c(Oc3ncnc(Nc4ccc(N5CCN(C)CC5)cn4)c3F)ccc2[nH]1 [Example 27] | > 500 nM | > 500 nM |
| 12% | 62% | 17% | 96% | 97% | -15% | -7% | Cc1cc2c(F)c(Oc3ncnc(Nc4ccc(N5CCNCC5)cc4)c3F)ccc2[nH]1 [Example 28] | > 500 nM | > 500 nM |
| 45% | 15% | 21% | 87% | 92% | 68% | 48% | Cc1cc2c(F)c(Oc3cc(Nc4ccccn4)ncn3)ccc2[nH]1 [Example 18] | > 500 nM | – |
| 18% | -5% | 8% | 59% | 89% | 48% | 13% | CCOC(=O)c1cc(Nc2cc(Oc3ccc4[nH]c(C)cc4c3F)ncn2)n[nH]1 [Example 19] | > 500 nM | – |
